ChEMBL document CHEMBL1275550, “In vitro activity of doripenem, a carbapenem for the treatment of challenging infections caused by gram-negative bacteria, against recent clinical isolates from the United States” (2008)
Converted amounts (≈) assume the structure as drawn.

Columns and labels:
Serratia marcescens [1] = test: Antimicrobial activity against Ceftazidime non-susceptible Serratia marcescens by broth microdilution method; format: functional
Proteus mirabilis [2] = test: Antimicrobial activity against Proteus mirabilis assessed as intermediate isolate by broth microdilution method; format: functional
Proteus mirabilis [3] = test: Antimicrobial activity against Non-ESBL Proteus mirabilis assessed as susceptible isolate by broth microdilution method; format: functional
Staphylococcus aureus [4] = test: Antimicrobial activity against methicillin-resistant Staphylococcus aureus by broth microdilution method; format: functional
Klebsiella pneumoniae [5] = test: Antimicrobial activity against ESBL producing Klebsiella pneumoniae assessed as susceptible isolate by broth microdilution method; format: functional
Enterobacteriaceae [6] = test: Antimicrobial activity against Enterobacteriaceae assessed as intermediate isolate by broth microdilution method; format: functional
Pseudomonas aeruginosa [7] = test: Antimicrobial activity against Pseudomonas aeruginosa isolated from patient by broth microdilution method
Serratia marcescens [8] = test: Antimicrobial activity against Serratia marcescens by broth microdilution method; format: functional
Pseudomonas aeruginosa [9] = test: Antimicrobial activity against imipenem susceptible Pseudomonas aeruginosa by broth microdilution method; format: functional
Pseudomonas aeruginosa [10] = test: Antimicrobial activity against Ceftazidime susceptible Pseudomonas aeruginosa assessed as susceptible isolate by broth microdilution method; format: functional
Enterobacteriaceae [11] = test: Antimicrobial activity against Ceftazidime non-susceptible Enterobacteriaceae assessed as susceptible isolate by broth microdilution method; format: functional
Streptococcus pneumoniae [12] = test: Antimicrobial activity against […] assessed as susceptible isolate by broth microdilution method; format: functional
Enterobacter cloacae [13] = test: Antimicrobial activity against Enterobacter cloacae by broth microdilution method; format: functional
Enterobacter cloacae [14] = test: Antimicrobial activity against Enterobacter cloacae with derepressed AmpC beta-lactamsae assessed as susceptible isolate by broth microdilution method; format: functional
Enterobacteriaceae [15] = test: Antimicrobial activity against Ceftazidime non-susceptible Enterobacteriaceae assessed as resistant isolate by broth microdilution method; format: functional
Proteus mirabilis [16] = test: Antimicrobial activity against Proteus mirabilis assessed as susceptible isolate by broth microdilution method; format: functional
Serratia marcescens [17] = test: Antimicrobial activity against Serratia marcescens assessed as resistant isolate by broth microdilution method; format: functional
Pseudomonas aeruginosa [18] = test: Antimicrobial activity against Ceftazidime susceptible Pseudomonas aeruginosa assessed as intermediate isolate by broth microdilution method; format: functional
Acinetobacter [19] = test: Antimicrobial activity against imipenem non-susceptible Acinetobacter assessed as intermediate isolate by broth microdilution method; format: functional
Acinetobacter [20] = test: Antimicrobial activity against imipenem non-susceptible Acinetobacter by broth microdilution method; format: functional
Enterobacter cloacae [21] = test: Antimicrobial activity against Enterobacter cloacae with nonderepressed AmpC beta-lactamsae by broth microdilution method; format: functional
Escherichia coli [22] = test: Antimicrobial activity against ESBL producing Escherichia coli assessed as susceptible isolate by broth microdilution method; format: functional
Streptococcus pneumoniae [23] = test: Antimicrobial activity against penicillin-resistant Streptococcus pneumoniae by broth microdilution method; format: functional; conditions: Streptococcus pneumoniae
Enterobacteriaceae [24] = test: Antimicrobial activity against Enterobacteriaceae assessed as resistant isolate by broth microdilution method; format: functional
Klebsiella pneumoniae [25] = test: Antimicrobial activity against Klebsiella pneumoniae by broth microdilution method; format: functional
Pseudomonas aeruginosa [26] = test: Antimicrobial activity against Pseudomonas aeruginosa by broth microdilution method; format: functional
Klebsiella pneumoniae [27] = test: Antimicrobial activity against Non-ESBL Klebsiella pneumoniae by broth microdilution method; format: functional
Enterobacter cloacae [28] = test: Antimicrobial activity against Enterobacter cloacae with nonderepressed AmpC beta-lactamsae assessed as susceptible isolate by broth microdilution method; format: functional
Escherichia coli [29] = test: Antimicrobial activity against Escherichia coli by broth microdilution method; format: functional
Klebsiella pneumoniae [30] = test: Antimicrobial activity against Non-ESBL Klebsiella pneumoniae assessed as intermediate isolate by broth microdilution method; format: functional
Serratia marcescens [31] = test: Antimicrobial activity against Ceftazidime susceptible Serratia marcescens by broth microdilution method; format: functional
Staphylococcus aureus [32] = test: Antimicrobial activity against methicillin-susceptible Staphylococcus aureus by broth microdilution method; format: functional; conditions: Staphylococcus aureus
Escherichia coli [33] = test: Antimicrobial activity against Escherichia coli assessed as susceptible isolate by broth microdilution method; format: functional
Proteus mirabilis [34] = test: Antimicrobial activity against ESBL producing Proteus mirabilis assessed as susceptible isolate by broth microdilution method; format: functional
Staphylococcus aureus [35] = test: Antimicrobial activity against methicillin-susceptible Staphylococcus aureus assessed as susceptible isolate by broth microdilution method; format: functional
Pseudomonas aeruginosa [36] = test: Antimicrobial activity against Pseudomonas aeruginosa assessed as intermediate isolate by broth microdilution method; format: functional
Streptococcus pneumoniae [37] = test: Antimicrobial activity against penicillin-intermediate Streptococcus pneumoniae by broth microdilution method; format: functional
Citrobacter [38] = test: Antimicrobial activity against Citrobacter assessed as susceptible isolate by broth microdilution method; format: functional
Pseudomonas aeruginosa [39] = test: Antimicrobial activity against Pseudomonas aeruginosa isolated from non-ICU patient by broth microdilution method
Citrobacter [40] = test: Antimicrobial activity against Citrobacter with nonderepressed AmpC beta-lactamsae by broth microdilution method; format: functional
Pseudomonas aeruginosa [41] = test: Antimicrobial activity against imipenem non-susceptible Pseudomonas aeruginosa assessed as susceptible isolate by broth microdilution method; format: functional
Escherichia coli [42] = test: Antimicrobial activity against ESBL producing Escherichia coli assessed as intermediate isolate by broth microdilution method; format: functional
Streptococcus pneumoniae [43] = test: Antimicrobial activity against penicillin-intermediate Streptococcus pneumoniae assessed as intermediate isolate by broth microdilution method; format: functional
Acinetobacter [44] = test: Antimicrobial activity against imipenem susceptible Acinetobacter assessed as susceptible isolate by broth microdilution method; format: functional
Pseudomonas aeruginosa [45] = test: Antimicrobial activity against Pseudomonas aeruginosa isolated from ICU patient by broth microdilution method; format: functional
Escherichia coli [46] = test: Antimicrobial activity against ESBL producing Escherichia coli by broth microdilution method; format: functional
Citrobacter [47] = test: Antimicrobial activity against Citrobacter with derepressed AmpC beta-lactamsae assessed as intermediate isolate by broth microdilution method; format: functional
Proteus mirabilis [48] = test: Antimicrobial activity against Proteus mirabilis by broth microdilution method; format: functional
Enterobacteriaceae [49] = test: Antimicrobial activity against Ceftazidime non-susceptible Enterobacteriaceae by broth microdilution method; format: functional
Citrobacter [50] = test: Antimicrobial activity against Citrobacter with nonderepressed AmpC beta-lactamsae assessed as susceptible isolate by broth microdilution method; format: functional
Acinetobacter [51] = test: Antimicrobial activity against Acinetobacter assessed as susceptible isolate by broth microdilution method; format: functional
Pseudomonas aeruginosa [52] = test: Antimicrobial activity against imipenem non-susceptible Pseudomonas aeruginosa by broth microdilution method; format: functional

With `C[C@@H](O)[C@H]1C(=O)N2C(C(=O)O)=C(SCCNC=N)C[C@H]12` [IMIPENEM ANHYDROUS] the MIC50 (Serratia marcescens [1]) was 2 µg/mL (≈ 6.68 µM), the MIC90 (Serratia marcescens [1]) was 4 µg/mL (≈ 13.4 µM) and the Activity (Proteus mirabilis [2]) was 2.5%. For the same compound, the Activity (Proteus mirabilis [3]) was 97.3%, the MIC50 (Staphylococcus aureus [4]) was 0.25 µg/mL (≈ 0.835 µM) and the MIC90 (Staphylococcus aureus [4]) was 8 µg/mL (≈ 26.7 µM). The Activity (Klebsiella pneumoniae [5]) was 95.5%, the Activity (Enterobacteriaceae [6]) was 0.4% and the Activity (Pseudomonas aeruginosa [7]) was 7.9%. It also gave an MIC50 (Serratia marcescens [8]) of 2 µg/mL (≈ 6.68 µM), an MIC90 (Serratia marcescens [8]) of 4 µg/mL (≈ 13.4 µM) and an MIC50 (Pseudomonas aeruginosa [9]) of 2 µg/mL (≈ 6.68 µM). For the same compound, the MIC90 (Pseudomonas aeruginosa [9]) was 4 µg/mL (≈ 13.4 µM), the Activity (Pseudomonas aeruginosa [10]) was 79.3% and the Activity (Enterobacteriaceae [11]) was 97.3%. The Activity (Streptococcus pneumoniae [12]) was 99.9%, the MIC50 (Enterobacter cloacae [13]) was 1 µg/mL (≈ 3.34 µM) and the MIC90 (Enterobacter cloacae [13]) was 2 µg/mL (≈ 6.68 µM). For the same compound, the Activity (Enterobacter cloacae [14]) was 100%, the Activity (Enterobacteriaceae [15]) was 1% and the Activity (Proteus mirabilis [16]) was 97.3%. It also gave an Activity (Serratia marcescens [17]) of 0.8%, an Activity (Pseudomonas aeruginosa [18]) of 7.6% and an Activity (Acinetobacter [19]) of 3.9%. The MIC50 (Acinetobacter [20]) was over 32 µg/mL, the MIC90 (Acinetobacter [20]) was over 32 µg/mL and the MIC50 (Enterobacter cloacae [21]) was 1 µg/mL (≈ 3.34 µM). For the same compound, the MIC90 (Enterobacter cloacae [21]) was 2 µg/mL (≈ 6.68 µM), the Activity (Escherichia coli [22]) was 100% and the MIC50 (Streptococcus pneumoniae [23]; read-out: MIC50) was 0.5 µg/mL (≈ 1.67 µM). The MIC90 (Streptococcus pneumoniae [23]; read-out: MIC90) was 1 µg/mL (≈ 3.34 µM), the Activity (Enterobacteriaceae [24]) was 0.1% and the MIC50 (Klebsiella pneumoniae [25]) was 0.5 µg/mL (≈ 1.67 µM). For the same compound, the MIC90 (Klebsiella pneumoniae [25]) was 1 µg/mL (≈ 3.34 µM), the MIC50 (Pseudomonas aeruginosa [26]) was 4 µg/mL (≈ 13.4 µM) and the MIC90 (Pseudomonas aeruginosa [26]) was 32 µg/mL (≈ 107 µM). For the same compound, the MIC50 (Klebsiella pneumoniae [27]) was 0.5 µg/mL (≈ 1.67 µM), the MIC90 (Klebsiella pneumoniae [27]) was 1 µg/mL (≈ 3.34 µM) and the Activity (Enterobacter cloacae [28]) was 99.5%. The MIC50 (Escherichia coli [29]) was 0.25 µg/mL (≈ 0.835 µM), the MIC90 (Escherichia coli [29]) was 0.5 µg/mL (≈ 1.67 µM) and the Activity (Klebsiella pneumoniae [30]) was 0.1%. It also gave an MIC50 (Serratia marcescens [31]) of 2 µg/mL (≈ 6.68 µM), an MIC90 (Serratia marcescens [31]) of 4 µg/mL (≈ 13.4 µM) and an MIC50 (Staphylococcus aureus [32]; read-out: MIC50) of 0.03 µg/mL (≈ 0.1 µM). For the same compound, the MIC90 (Staphylococcus aureus [32]; read-out: MIC90) was 0.03 µg/mL (≈ 0.1 µM), the Activity (Escherichia coli [33]) was 100% and the Activity (Proteus mirabilis [34]) was 100%. For the same compound, the Activity (Staphylococcus aureus [35]) was 100%, the Activity (Pseudomonas aeruginosa [36]) was 7.7% and the MIC50 (Streptococcus pneumoniae [37]) was 0.03 µg/mL (≈ 0.1 µM). The MIC90 (Streptococcus pneumoniae [37]) was 0.25 µg/mL (≈ 0.835 µM), the Activity (Citrobacter [38]) was 99.8% and the Activity (Pseudomonas aeruginosa [39]) was 74.9%. The MIC50 (Citrobacter [40]) was 0.5 µg/mL (≈ 1.67 µM), the MIC90 (Citrobacter [40]) was 2 µg/mL (≈ 6.68 µM) and the Activity (Pseudomonas aeruginosa [41]) was 0%. For the same compound, the Activity (Escherichia coli [42]) was 0%, the Activity (Streptococcus pneumoniae [43]) was 84.4% and the Activity (Acinetobacter [44]) was 100%. For the same compound, the MIC50 (Pseudomonas aeruginosa [45]) was 4 µg/mL (≈ 13.4 µM), the MIC90 (Pseudomonas aeruginosa [45]) was 32 µg/mL (≈ 107 µM) and the MIC50 (Escherichia coli [46]) was 0.5 µg/mL (≈ 1.67 µM). The MIC90 (Escherichia coli [46]) was 1 µg/mL (≈ 3.34 µM), the Activity (Citrobacter [47]) was 0% and the MIC50 (Proteus mirabilis [48]) was 2 µg/mL (≈ 6.68 µM). It also gave an MIC90 (Proteus mirabilis [48]) of 4 µg/mL (≈ 13.4 µM), an MIC50 (Enterobacteriaceae [49]) of 1 µg/mL (≈ 3.34 µM) and an MIC90 (Enterobacteriaceae [49]) of 2 µg/mL (≈ 6.68 µM). For the same compound, the Activity (Citrobacter [50]) was 99.8%, the Activity (Acinetobacter [51]) was 82.4% and the MIC50 (Pseudomonas aeruginosa [52]) was 16 µg/mL (≈ 53.4 µM). The MIC90 (Pseudomonas aeruginosa [52]) was over 32 µg/mL.
